Results from publication PMC6884456, “Supreme activity of gramicidin S against resistant, persistent and biofilm cells of staphylococci and enterococci” (Scientific Reports, 2019).
Where no end group is shown, it is not given here.

Assays:
[1] = tested on: S. aureus DSM 1104; assay type: cell-based, Staphylococcus aureus; conditions: S. aureus DSM 1104; 10 µl from MIC plates spotted on Mueller-Hinton agar, overnight 37 °C, no colonies on two plates
[2] = tested on: E. faecalis TRE1; assay type: cell-based, Enterococcus faecalis; conditions: E. faecalis TRE1; spotted from MIC plates on Mueller-Hinton agar, overnight, no colonies
[3] = molecular target: human serum albumin (HSA) (Homo sapiens, UniProt P02768); test: HSA binding, biomimetic chromatography; conditions: Chiralpak-HSA column
Sequence of human serum albumin (HSA) (P02768 25-609): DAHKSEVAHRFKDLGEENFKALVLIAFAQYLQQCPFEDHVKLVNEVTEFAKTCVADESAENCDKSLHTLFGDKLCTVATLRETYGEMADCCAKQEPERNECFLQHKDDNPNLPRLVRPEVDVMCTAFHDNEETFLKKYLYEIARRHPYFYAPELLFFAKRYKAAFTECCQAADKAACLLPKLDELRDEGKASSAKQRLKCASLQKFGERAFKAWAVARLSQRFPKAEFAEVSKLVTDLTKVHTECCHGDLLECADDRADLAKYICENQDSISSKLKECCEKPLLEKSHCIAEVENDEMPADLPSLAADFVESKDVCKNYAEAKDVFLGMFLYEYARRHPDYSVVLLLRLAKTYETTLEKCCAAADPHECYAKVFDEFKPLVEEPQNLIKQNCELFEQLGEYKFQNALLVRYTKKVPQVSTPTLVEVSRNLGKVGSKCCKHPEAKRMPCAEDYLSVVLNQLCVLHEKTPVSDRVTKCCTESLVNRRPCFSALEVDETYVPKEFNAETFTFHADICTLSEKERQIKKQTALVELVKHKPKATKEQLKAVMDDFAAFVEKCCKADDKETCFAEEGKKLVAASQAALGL
Description: (§1) HPLC was performed on an Agilent 1100 system with an ultraviolet diode array detector. […] Binding measurements were performed using Regis Technologies IAM.PC.DD2 (100 × 4.6 mm), HiChrom Chiralpak-HSA (50 × 3 mm) and HiChrom Chiralpak-AGP (50 × 3 mm) columns. […] Retention times were converted to log k and % binding, using calibration routines described in[72].

[4] = tested on: α1-acid glycoprotein (AGP); test: AGP binding, biomimetic chromatography; conditions: Chiralpak-AGP column
Description: as §1

[5] = tested on: S. aureus DSM 1104 SCV; assay type: cell-based, Staphylococcus aureus; conditions: spotted from MIC plates on Mueller-Hinton agar, overnight, no colonies
Description: MBC was determined directly after the MIC evaluation.

[6] = tested on: S. aureus MRSA9; assay type: cell-based, Staphylococcus aureus; conditions: S. aureus MRSA9; spotted from MIC plates on Mueller-Hinton agar, overnight, no colonies
[7] = tested on: E. faecalis WW4; assay type: cell-based, Enterococcus faecalis; conditions: E. faecalis WW4; spotted from MIC plates on Mueller-Hinton agar, overnight, no colonies
[8] = tested on: E. faecalis TRE4; assay type: cell-based, Enterococcus faecalis; conditions: E. faecalis TRE4; spotted from MIC plates on Mueller-Hinton agar, overnight, no colonies
[9] = tested on: E. faecalis DSM 2570; assay type: cell-based, Enterococcus faecalis; conditions: E. faecalis DSM 2570; spotted from MIC plates on Mueller-Hinton agar, overnight, no colonies
[10] = tested on: E. faecium VRE1; assay type: cell-based, Enterococcus faecium; conditions: E. faecium VRE1; spotted from MIC plates on Mueller-Hinton agar, overnight, no colonies
[11] = Chromatographic hydrophobicity index (CHI), C18
Description: as §1

[12] = tested on: human erythrocytes; test: Haemolysis assay; assay type: cell-based; conditions: 0.25% human erythrocyte suspension, 37 °C, 30 min, A540, relative to 0.1% Triton X-100
Description: Haemolytic activity was determined with a serial 2-fold dilution assay. Citrate phosphate dextrose-stabilized human erythrocyte suspensions were obtained from Karlsruhe Municipal Hospital. […] The mixture was pelleted (13 000 rpm, 10 min, 4 °C), and the absorbance of the supernatant was recorded at 540 nm vs. reaction buffer. The extent of haemolysis was related to the action of 0.1% Triton X-100 (100%).

[13] = tested on: S. aureus MRSA3; assay type: cell-based, Staphylococcus aureus; conditions: S. aureus MRSA3; spotted from MIC plates on Mueller-Hinton agar, overnight, no colonies
[14] = tested on: Danio rerio embryos; test: Acute toxicity in Danio rerio embryos; assay type: in vivo; conditions: zebrafish embryos 72 hpf, E3 medium, heart beat
Description: Experiments were performed in accordance with the relevant OECD testing guidelines[73] and German animal protection standards. Wild type D. rerio embryos were obtained at the European Zebrafish Resource Center (Karlsruhe). Fertilized eggs (6 hpf) were raised in 4 ml of embryonic medium (E3) at 28 °C until 72 hpf (6-well plate, 20 eggs/well). Embryos were transferred into flat-bottom glass vials (E3, 1 ml, 15–20 embryos/vial). Peptides were added as 20 µl aliquots in 10% dimethyl sulfoxide in serial 2-fold dilutions. Toxicity was expressed as the concentration at which 50% of the embryos were visually observed to die (measured at 1 and 3 hours exposure) by identifying the heart beat.

[15] = tested on: S. aureus MRSA4; assay type: cell-based, Staphylococcus aureus; conditions: S. aureus MRSA4; spotted from MIC plates on Mueller-Hinton agar, overnight, no colonies
[16] = tested on: S. aureus MRSA8 SCV; conditions: spotted from MIC plates on Mueller-Hinton agar, overnight, no colonies
Description: (§2) MBC was determined directly after the MIC evaluation. The 10 µl samples of all 8 dilution rows in the microtiter plates were spotted on square Mueller-Hinton agar plates and incubated overnight at 37 °C and 5% CO2. The MBC was determined as the concentration at which no bacterial colonies were obtained on the two parallel spotted plates.

[17] = tested on: S. aureus MRSA9 SCV; conditions: spotted from MIC plates on Mueller-Hinton agar, overnight, no colonies
Description: as §2

[18] = tested on: S. aureus MRSA538 SCV; conditions: spotted from MIC plates on Mueller-Hinton agar, overnight, no colonies
Description: as §2

[19] = tested on: E. faecalis WW6; assay type: cell-based, Enterococcus faecalis; conditions: E. faecalis WW6; spotted from MIC plates on Mueller-Hinton agar, overnight, no colonies
[20] = tested on: S. aureus DSM 1104; conditions: S. aureus DSM 1104; value in parentheses
Description: (§3) This parameter quantifies the ability of the peptides to prevent biofilm outgrowth.
(§4) After co-incubation with peptides at 37 °C and 5% CO2 without agitation for 24 hours, the planktonic cells were washed, and Crystal violet staining was applied.

[21] = tested on: E. faecalis WW6; conditions: E. faecalis WW6; Todd-Hewitt broth, 5 × 10^7 CFU/ml, 24 h, 37 °C, Crystal violet
Description: as §3, §4

[22] = tested on: E. faecalis TRE2; conditions: E. faecalis TRE2; value in parentheses
Description: as §3, §4

[23] = tested on: S. aureus MRSA8 SCV; conditions: value in parentheses
Description: as §3, §4

[24] = tested on: E. faecalis DSM 2570; conditions: E. faecalis DSM 2570; value in parentheses
Description: as §3, §4

[25] = tested on: S. aureus DSM 1104 SCV; assay type: cell-based, Staphylococcus aureus; conditions: value in parentheses
Description: as §3, §4

[26] = tested on: E. faecalis TRE2; assay type: cell-based, Enterococcus faecalis; conditions: E. faecalis TRE2; spotted from MIC plates on Mueller-Hinton agar, overnight, no colonies
[27] = tested on: E. faecium VRE2; assay type: cell-based, Enterococcus faecium; conditions: E. faecium VRE2; spotted from MIC plates on Mueller-Hinton agar, overnight, no colonies
[28] = 50 mM ammonium acetate pH 7.4, 0–35% 2-propanol gradient, calibrated retention times, UV
[29] = pH 7.4, 0–35% 2-propanol gradient, value in parentheses

With VRLIVAVRIWRR-NH2 [IDR, IDR-1018] as the substance, how does the MBC [1] read?
The MBC was 128 (83) µg/ml.

What about the MBC [2] of the same substance?
Its MBC is 64 (42) µg/ml.

What about the “Bound HSA” value [3, 28] of the same substance?
The value was 97.98%.

And the “log k HSA” value [3, 29]?
The value was 1.51.

And the “Bound AGP” value [4, 28]?
Its value is 93.37%.

What about the “log k AGP” value [4, 29] of the same substance?
The value was 1.09.

What about the MBC [5] of the same substance?
Its MBC is 128 (83) µg/ml.

And the MBC [6]?
The MBC was 128 (83) µg/ml.

What about the MBC [7] of the same substance?
Its MBC is 64 (42) µg/ml.

What about the MBC [8] of the same substance?
Its MBC is 16 (10) µg/ml.

And the MBC [9]?
Its MBC is 64 (42) µg/ml.

And the MBC [10]?
The MBC was 32 (21) µg/ml.

What about the chromatographic logD ([11]; pH 2.6) of the same substance?
Its chromatographic logD is -0.53.

And the chromatographic logD ([11]; pH 7.4)?
The chromatographic logD was 0.88.

What about the chromatographic logD ([11]; pH 10.5) of the same substance?
The chromatographic logD was 4.43.

And the “Haemolysis at 5 μM” value ([12]; 5 μM peptide)?
Its value is 18%.

And the “Haemolysis at 10 μM” value ([12]; 10 μM peptide)?
The value was 28%.

And the MBC [13]?
Its MBC is 128 (83) µg/ml.

What about the “1h LD50” value ([14]; 1 hour exposure) of the same substance?
Its value is 15 µg/mL.

What about the “3h LD50” value ([14]; 3 hours exposure) of the same substance?
Its value is 11 µg/mL.

And the MBC [15]?
Its MBC is > 256 µg/mL.

And the MBC [16]?
Its MBC is 128 (83) µg/ml.

And the MBC [17]?
The MBC was 128 (83) µg/ml.

What about the MBC [18] of the same substance?
The MBC was 128 (83) µg/ml.

What about the MBC [19] of the same substance?
The MBC was 64 (42) µg/ml.

What about the MBIC90 [20] of the same substance?
Its MBIC90 is 42 µM.

What about the MBIC90 [21] of the same substance?
The MBIC90 was > 256 µg/mL.

What about the MBIC90 [22] of the same substance?
Its MBIC90 is 167 µM.

What about the MBIC90 [23] of the same substance?
Its MBIC90 is 42 µM.

What about the MBIC90 [24] of the same substance?
The MBIC90 was 167 µM.

And the MBIC90 [25]?
Its MBIC90 is 83 µM.

What about the MBC [26] of the same substance?
The MBC was 128 (83) µg/ml.

And the MBC [27]?
Its MBC is 32 (21) µg/ml.
